Source: ChEMBL document CHEMBL3875233, “Non-kinase targets of protein kinase inhibitors” (Nat Rev Drug Discov, 2017)

Experiments:
[1] = target: T1, Ferrochelatase, mitochondrial (Homo sapiens, UniProt P22830); experiment: Stabilization of FECH in human K562 cells after 1 hr by thermal shift assay; assay type: cell-based
T1 sequence (P22830 whole entry): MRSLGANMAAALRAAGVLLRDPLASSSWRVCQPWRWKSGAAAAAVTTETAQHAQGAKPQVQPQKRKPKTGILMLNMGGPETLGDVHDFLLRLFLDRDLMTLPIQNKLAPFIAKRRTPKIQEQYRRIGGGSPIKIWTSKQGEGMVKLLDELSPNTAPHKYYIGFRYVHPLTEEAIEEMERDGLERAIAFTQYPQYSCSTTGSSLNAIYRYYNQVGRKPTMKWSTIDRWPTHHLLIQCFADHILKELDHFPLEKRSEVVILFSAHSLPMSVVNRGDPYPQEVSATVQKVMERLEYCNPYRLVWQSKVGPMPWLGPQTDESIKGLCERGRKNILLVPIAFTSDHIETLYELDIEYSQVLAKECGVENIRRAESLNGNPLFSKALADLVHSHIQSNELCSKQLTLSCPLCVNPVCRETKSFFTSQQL

[2] = target: T2, Bromodomain-containing protein 4 (Homo sapiens, UniProt O60885)
Description: Binding affinity to recombinant human His6-TEV protease-tagged BRD4 bromodomain 1 expressed in bacteria by isothermal titration calorimetric method

[3] = Inhibition of porcine brain tubulin polymerization measured every min during incubation by fluorescence assay; set-up: species or system Sus scrofa
[4] = target: T2, Bromodomain-containing protein 4; experiment: Inhibition of immobilized N-LY294002 bead binding to C-terminal Flag-tagged BRD4 (unknown origin) expressed in HEK293T cell nuclear extract incubated for 1 hr by LC-MS/MS analysis; set-up: species or system HEK-293T
[5] = target: Bromodomain-containing protein 2 (Homo sapiens, UniProt P25440); experiment: Inhibition of immobilized N-LY294002 bead binding to BRD2 (unknown origin) expressed in HEK293T cell nuclear extract incubated for 1 hr by LC-MS/MS analysis; set-up: species or system HEK-293T
Sequence of Bromodomain-containing protein 2 (P25440 whole entry): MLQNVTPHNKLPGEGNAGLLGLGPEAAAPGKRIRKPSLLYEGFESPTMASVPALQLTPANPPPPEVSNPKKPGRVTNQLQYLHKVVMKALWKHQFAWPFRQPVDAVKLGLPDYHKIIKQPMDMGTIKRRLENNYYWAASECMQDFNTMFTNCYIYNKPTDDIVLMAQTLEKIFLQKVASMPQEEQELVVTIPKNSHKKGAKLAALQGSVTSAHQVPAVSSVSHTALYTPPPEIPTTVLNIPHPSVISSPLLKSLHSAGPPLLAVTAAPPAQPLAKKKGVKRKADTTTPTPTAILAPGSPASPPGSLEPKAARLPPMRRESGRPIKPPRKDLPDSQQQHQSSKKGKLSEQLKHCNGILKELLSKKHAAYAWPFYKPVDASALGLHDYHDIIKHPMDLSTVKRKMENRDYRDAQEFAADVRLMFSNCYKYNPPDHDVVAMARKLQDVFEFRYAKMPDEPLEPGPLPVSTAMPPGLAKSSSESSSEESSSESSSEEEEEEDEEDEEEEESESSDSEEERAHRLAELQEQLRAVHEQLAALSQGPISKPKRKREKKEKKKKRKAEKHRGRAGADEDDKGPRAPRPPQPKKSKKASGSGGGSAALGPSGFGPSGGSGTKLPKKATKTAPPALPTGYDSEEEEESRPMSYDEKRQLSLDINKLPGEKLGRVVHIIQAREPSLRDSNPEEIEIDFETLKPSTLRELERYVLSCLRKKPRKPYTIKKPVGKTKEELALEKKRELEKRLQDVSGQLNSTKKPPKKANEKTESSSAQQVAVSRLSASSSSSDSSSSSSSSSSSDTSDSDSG

[6] = target: Bromodomain-containing protein 3 (Homo sapiens, UniProt Q15059); experiment: Inhibition of immobilized N-LY294002 bead binding to BRD3 (unknown origin) expressed in HEK293T cell nuclear extract incubated for 1 hr by LC-MS/MS analysis; set-up: species or system HEK-293T
Sequence of Bromodomain-containing protein 3 (Q15059 whole entry, canonical isoform): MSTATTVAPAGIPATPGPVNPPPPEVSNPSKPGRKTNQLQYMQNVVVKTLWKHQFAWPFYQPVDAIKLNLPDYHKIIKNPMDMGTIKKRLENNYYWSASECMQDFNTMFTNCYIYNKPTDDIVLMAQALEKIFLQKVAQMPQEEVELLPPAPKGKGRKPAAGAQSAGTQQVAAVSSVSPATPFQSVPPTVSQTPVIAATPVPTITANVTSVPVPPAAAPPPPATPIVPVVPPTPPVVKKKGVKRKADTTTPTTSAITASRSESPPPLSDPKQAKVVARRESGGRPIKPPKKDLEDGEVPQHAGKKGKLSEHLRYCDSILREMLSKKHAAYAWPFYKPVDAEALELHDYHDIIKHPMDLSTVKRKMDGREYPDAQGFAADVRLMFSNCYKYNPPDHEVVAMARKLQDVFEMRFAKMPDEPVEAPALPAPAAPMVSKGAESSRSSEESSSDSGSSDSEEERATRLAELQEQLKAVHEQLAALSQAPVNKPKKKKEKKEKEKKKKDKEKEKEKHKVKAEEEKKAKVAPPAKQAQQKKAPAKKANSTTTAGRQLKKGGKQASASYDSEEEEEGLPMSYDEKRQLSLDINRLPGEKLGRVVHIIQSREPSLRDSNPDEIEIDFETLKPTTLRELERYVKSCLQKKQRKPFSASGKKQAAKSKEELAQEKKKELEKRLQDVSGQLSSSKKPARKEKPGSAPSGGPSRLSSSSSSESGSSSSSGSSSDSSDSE

[7] = target: T3, Phosphatidylinositol 4,5-bisphosphate 3-kinase catalytic subunit delta isoform (Homo sapiens, UniProt O00329); experiment: Inhibition of immobilized N-LY294002 bead binding to PI3Kdelta (unknown origin) expressed in HEK293T cells incubated for 1 hr by LC-MS/MS analysis; assay type: cell-based, HEK-293T
T3 sequence (O00329 whole entry): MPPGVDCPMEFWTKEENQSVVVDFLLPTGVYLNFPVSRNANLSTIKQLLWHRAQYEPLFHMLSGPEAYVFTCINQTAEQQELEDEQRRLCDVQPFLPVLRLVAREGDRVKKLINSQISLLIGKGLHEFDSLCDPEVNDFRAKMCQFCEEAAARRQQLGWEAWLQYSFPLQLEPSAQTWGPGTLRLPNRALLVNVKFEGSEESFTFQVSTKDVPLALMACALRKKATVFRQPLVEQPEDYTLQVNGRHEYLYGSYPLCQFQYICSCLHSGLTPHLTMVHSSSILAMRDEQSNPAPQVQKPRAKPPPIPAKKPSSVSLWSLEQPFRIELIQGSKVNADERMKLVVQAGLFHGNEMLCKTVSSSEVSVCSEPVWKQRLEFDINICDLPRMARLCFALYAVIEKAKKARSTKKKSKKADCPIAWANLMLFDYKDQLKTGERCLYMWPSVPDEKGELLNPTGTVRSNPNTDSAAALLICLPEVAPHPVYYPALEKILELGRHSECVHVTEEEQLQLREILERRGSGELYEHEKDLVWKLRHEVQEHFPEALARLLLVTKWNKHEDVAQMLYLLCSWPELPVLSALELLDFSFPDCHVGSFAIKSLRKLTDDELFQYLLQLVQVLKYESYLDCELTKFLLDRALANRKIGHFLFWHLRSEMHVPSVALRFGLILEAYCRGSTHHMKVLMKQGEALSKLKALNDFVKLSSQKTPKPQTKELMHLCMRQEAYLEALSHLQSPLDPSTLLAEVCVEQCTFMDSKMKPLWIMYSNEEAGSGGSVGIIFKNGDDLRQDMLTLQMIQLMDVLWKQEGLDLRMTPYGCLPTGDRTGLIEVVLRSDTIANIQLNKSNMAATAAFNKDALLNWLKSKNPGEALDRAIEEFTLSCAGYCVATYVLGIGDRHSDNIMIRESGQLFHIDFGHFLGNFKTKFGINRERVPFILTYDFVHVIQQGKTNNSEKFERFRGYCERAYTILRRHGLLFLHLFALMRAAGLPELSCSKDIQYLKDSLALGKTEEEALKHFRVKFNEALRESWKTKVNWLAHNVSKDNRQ

[8] = target: Mitogen-activated protein kinase 14 (Mus musculus, UniProt P47811); experiment: Inhibition of mouse N-terminal 5His-tagged p38alpha assessed as decrease in 6His-tagged MK2a (51 to 400 residues) phosphorylation in presence of [gamma-33P]-ATP by scintillation counting method
Sequence of Mitogen-activated protein kinase 14 (P47811 whole entry, the tested form may be a part): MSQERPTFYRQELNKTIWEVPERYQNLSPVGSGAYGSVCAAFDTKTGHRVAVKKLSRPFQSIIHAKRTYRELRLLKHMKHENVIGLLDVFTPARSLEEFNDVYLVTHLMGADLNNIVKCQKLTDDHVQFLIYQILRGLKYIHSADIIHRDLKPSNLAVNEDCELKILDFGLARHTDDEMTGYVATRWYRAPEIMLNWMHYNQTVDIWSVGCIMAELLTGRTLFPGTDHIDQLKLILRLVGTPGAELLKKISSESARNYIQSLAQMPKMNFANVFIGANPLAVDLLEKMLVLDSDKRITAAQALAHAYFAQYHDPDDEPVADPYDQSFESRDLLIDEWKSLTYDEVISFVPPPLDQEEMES

[9] = Inhibition of tubulin polymerization in human U87 cells assessed as decrease in cell viability after 72 hrs by Alamar blue assay; assay type: cell-based, U-87MG ATCC; details: U-87 MG
[10] = target: MAP kinase-activated protein kinase 2 (Homo sapiens, UniProt P49137); experiment: Inhibition of recombinant MK2 (45 to 400 residues) (unknown origin) using fluorescein isothiocyanate-KKKALSRQLSVAA as substrate
Sequence of MAP kinase-activated protein kinase 2 (P49137 whole entry, the tested form may be a part): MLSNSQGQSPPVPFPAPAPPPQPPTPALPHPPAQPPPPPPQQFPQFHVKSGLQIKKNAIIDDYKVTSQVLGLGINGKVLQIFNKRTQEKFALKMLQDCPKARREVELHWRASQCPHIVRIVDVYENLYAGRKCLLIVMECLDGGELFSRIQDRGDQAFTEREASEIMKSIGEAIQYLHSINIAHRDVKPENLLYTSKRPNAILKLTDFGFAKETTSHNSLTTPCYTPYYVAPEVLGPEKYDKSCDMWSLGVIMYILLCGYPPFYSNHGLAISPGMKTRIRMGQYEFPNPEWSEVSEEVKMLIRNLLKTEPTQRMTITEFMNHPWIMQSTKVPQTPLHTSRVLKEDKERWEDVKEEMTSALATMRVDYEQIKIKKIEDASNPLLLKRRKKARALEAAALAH

[11] = Inhibition of tubulin (unknown origin) polymerization by spectrophotometric method; set-up: species or system Homo sapiens
[12] = target: Casein kinase I isoform epsilon (Homo sapiens, UniProt P49674); experiment: Inhibition of human CK1epsilon using casein as substrate in presence of [gamma-32P]-ATP
Sequence of Casein kinase I isoform epsilon (P49674 whole entry, canonical isoform): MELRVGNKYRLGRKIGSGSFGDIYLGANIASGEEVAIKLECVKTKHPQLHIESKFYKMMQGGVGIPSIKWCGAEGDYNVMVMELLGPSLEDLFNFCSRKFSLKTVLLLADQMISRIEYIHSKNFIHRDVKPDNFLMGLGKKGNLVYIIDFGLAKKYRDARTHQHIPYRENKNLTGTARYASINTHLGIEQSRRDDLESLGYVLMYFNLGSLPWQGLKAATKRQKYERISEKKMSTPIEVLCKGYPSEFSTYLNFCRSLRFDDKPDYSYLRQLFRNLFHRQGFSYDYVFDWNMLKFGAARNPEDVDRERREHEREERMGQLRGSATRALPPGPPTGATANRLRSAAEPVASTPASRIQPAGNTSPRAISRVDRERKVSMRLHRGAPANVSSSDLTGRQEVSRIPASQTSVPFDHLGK

[13] = target: Casein kinase I isoform delta (Homo sapiens, UniProt P48730); experiment: Inhibition of human CK1delta using casein as substrate in presence of [gamma-32P]-ATP
Sequence of Casein kinase I isoform delta (P48730 whole entry, canonical isoform): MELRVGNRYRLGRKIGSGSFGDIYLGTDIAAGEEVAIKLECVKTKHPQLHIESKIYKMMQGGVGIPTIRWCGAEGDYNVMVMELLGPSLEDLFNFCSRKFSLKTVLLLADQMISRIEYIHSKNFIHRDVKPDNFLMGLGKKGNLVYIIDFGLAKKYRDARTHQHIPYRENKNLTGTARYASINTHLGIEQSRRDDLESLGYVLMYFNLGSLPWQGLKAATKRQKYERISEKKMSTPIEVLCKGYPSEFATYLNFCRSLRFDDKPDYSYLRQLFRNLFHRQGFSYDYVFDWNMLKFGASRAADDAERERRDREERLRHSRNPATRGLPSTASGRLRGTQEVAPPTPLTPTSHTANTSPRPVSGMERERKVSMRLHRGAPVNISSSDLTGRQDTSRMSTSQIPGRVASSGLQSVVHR

[14] = Inhibition of porcine brain tubulin polymerization measured every min for 1 hr by fluorescence assay; set-up: species or system Sus scrofa
[15] = target: T4, Receptor-interacting serine/threonine-protein kinase 1 (Homo sapiens, UniProt Q13546); experiment: Inhibition of recombinant human GST-fused RIPK1 (1 to 497 residues) expressed in baculovirus infected insect Sf9 cells in presence of 32P-gamma-ATP after 30 mins by autoradiogram-based Western blot method
T4 sequence (Q13546 whole entry): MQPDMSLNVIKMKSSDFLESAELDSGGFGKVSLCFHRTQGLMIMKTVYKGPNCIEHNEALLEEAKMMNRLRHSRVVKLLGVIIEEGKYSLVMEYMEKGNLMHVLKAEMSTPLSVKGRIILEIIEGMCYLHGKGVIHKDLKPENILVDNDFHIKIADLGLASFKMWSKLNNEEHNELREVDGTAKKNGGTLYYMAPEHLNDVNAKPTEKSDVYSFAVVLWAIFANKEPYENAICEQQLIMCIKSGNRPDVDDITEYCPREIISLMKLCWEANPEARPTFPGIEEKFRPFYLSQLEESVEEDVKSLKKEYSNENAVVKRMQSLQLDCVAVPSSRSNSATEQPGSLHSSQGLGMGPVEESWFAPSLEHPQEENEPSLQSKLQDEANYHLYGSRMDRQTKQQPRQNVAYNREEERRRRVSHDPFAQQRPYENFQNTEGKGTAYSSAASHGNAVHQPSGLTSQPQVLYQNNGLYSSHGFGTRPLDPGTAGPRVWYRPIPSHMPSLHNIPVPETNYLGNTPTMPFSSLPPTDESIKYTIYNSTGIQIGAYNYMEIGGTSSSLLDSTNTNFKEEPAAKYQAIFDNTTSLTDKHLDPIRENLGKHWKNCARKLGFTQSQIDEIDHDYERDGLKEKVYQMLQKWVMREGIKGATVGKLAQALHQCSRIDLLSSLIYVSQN

[16] = target: Indoleamine 2,3-dioxygenase 1 (Homo sapiens, UniProt P14902); experiment: Inhibition of recombinant human IDO using L-tryptophan as substrate after 60 mins
Sequence of Indoleamine 2,3-dioxygenase 1 (P14902 whole entry): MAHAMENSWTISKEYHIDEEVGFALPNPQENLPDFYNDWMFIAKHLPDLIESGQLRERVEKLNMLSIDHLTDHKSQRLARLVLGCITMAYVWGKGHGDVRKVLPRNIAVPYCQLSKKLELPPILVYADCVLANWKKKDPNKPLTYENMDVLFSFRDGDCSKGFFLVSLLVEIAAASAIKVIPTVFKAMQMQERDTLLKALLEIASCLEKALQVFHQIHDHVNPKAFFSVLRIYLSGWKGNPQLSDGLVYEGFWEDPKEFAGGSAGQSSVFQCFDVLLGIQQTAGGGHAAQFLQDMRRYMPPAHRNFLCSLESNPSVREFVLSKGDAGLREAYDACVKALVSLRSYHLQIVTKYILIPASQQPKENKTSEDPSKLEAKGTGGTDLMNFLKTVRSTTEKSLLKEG

[17] = target: Oxidized purine nucleoside triphosphate hydrolase (Homo sapiens, UniProt P36639)
Description: Inhibition of DsRed-fused MTH1 (unknown origin) expressed in HEK293T cells using 8-oxo-dGTP as substrate

[18] = target: T5, Receptor-type tyrosine-protein kinase FLT3 (Homo sapiens, UniProt P36888); experiment: Inhibition of FLT3 (unknown origin)
T5 sequence (P36888 whole entry): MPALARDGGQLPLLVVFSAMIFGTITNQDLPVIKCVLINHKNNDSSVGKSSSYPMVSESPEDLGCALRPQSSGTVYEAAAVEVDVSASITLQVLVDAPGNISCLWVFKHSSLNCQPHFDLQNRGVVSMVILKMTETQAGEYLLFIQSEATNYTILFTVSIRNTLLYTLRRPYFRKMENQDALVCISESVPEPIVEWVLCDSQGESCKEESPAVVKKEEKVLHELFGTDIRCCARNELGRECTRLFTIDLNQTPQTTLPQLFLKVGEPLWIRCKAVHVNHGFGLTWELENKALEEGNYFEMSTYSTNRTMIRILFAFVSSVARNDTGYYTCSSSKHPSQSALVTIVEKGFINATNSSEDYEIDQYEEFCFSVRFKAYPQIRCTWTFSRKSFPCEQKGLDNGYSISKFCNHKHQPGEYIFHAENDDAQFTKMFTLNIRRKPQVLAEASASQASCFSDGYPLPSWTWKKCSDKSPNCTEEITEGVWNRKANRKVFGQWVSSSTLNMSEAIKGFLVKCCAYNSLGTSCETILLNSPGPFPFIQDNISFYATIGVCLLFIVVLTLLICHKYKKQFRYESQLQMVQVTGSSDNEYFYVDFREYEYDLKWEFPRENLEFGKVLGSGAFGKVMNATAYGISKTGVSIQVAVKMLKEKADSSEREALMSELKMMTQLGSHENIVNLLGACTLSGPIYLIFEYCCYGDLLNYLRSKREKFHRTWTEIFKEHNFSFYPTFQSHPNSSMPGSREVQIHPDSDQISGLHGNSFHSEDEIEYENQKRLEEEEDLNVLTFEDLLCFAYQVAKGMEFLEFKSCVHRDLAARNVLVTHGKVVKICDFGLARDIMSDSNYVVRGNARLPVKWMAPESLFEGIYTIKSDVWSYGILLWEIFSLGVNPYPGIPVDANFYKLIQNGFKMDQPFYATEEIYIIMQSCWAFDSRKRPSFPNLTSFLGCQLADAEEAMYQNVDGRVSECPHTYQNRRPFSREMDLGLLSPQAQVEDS

[19] = target: T2, Bromodomain-containing protein 4; remark: listed apart in the source
[20] = target: Bromodomain testis-specific protein (Homo sapiens) (UniProt Q58F21)
[21] = target: T6, Ribosyldihydronicotinamide dehydrogenase [quinone] (Homo sapiens, UniProt P16083)
T6 sequence (P16083 whole entry): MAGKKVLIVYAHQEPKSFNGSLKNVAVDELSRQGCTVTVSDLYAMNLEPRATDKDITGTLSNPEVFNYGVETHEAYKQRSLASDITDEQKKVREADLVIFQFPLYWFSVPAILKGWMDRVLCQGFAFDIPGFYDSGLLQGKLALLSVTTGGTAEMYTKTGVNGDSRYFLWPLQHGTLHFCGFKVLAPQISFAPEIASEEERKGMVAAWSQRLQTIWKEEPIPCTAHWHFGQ
Description: Inhibition of kinobead binding to NQO2 in human K562 cells incubated for 30 mins by iTRAQ reagent-based mass spectrometric method

SMILES: CCCS(=O)(=O)Nc1ccc(F)c(C(=O)c2c[nH]c3ncc(-c4ccc(Cl)cc4)cc23)c1F [VEMURAFENIB]
- EC50 [1]: 5.01 µM

SMILES: CC[C@@H]1C(=O)N(C)c2cnc(Nc3ccc(C(=O)N[C@H]4CC[C@H](N5CCN(CC6CC6)CC5)CC4)cc3OC)nc2N1C(C)C [VOLASERTIB]
- Kd [2]: 0.079 µM

SMILES: O=C1NC(=O)[C@@H](c2cn3c4c(cccc24)CCC3)[C@@H]1c1c[nH]c2ccccc12 [TIVANTINIB]
- EC50 [3]: < 1 µM

SMILES: O=c1cc(N2CCOCC2)oc2c(-c3ccccc3)cccc12 [LY-294002]
- IC50 [4]: 12.4 µM
- IC50 [5]: 10.3 µM
- IC50 [6]: 13.7 µM
- IC50 [7]: 1.53 µM

SMILES: O=C(CCCc1ccc(-c2ccccc2F)cc1)Nc1ccc(O)cc1
- IC50 [8]: 0.33 µM
- EC50 [9]: < 1 µM

SMILES: Cc1ccc(-c2ccc3c(ccc4sc5c(c43)NC[C@@H](C)NC5=O)n2)cn1
- Ki [10]: 0.005 µM

SMILES: O=C(c1ccccc1-c1ccccc1)N1CCc2c([nH]c3ccccc23)C1
- EC50 [11]: < 1 µM

SMILES: O=c1cc(N2CCNCC2)oc2c(-c3ccccc3)cccc12
- IC50 [4]: 9.05 µM
- IC50 [5]: 7.4 µM
- IC50 [6]: 11.5 µM

SMILES: CN(c1ccccc1CNc1nc(Nc2ccc3c(c2)CC(=O)N3)ncc1C(F)(F)F)S(C)(=O)=O
- Kd [2]: 0.445 µM

SMILES: COc1cc(OC)c(/C=C2/C(=O)Nc3ccccc32)c(OC)c1
- IC50 [12]: 1 to 25 µM
- IC50 [13]: 1 to 25 µM
- EC50 [14]: < 1 µM

SMILES: CN1C(=O)C(Cc2c[nH]c3ccccc23)NC1=S (configuration not stated) [NECROSTATIN]
- IC50 [15]: 0.182 µM
- IC50 [16]: 115 µM

SMILES: Oc1ccc(-c2nc(-c3ccc(F)cc3)c(-c3ccncc3)[nH]2)cc1 [SB-202190]
- Kd [2]: 3.4 µM

SMILES: CC1(C)CC2CC(C)(CN2c2ncnc3[nH]cnc23)C1 (configuration not stated)
- IC50 [17]: 0.1 to 0.22 µM

SMILES: Cc1cnc(Nc2ccc(N3CCN(C)CC3)cc2)nc1Nc1cccc(S(=O)(=O)NC(C)(C)C)c1
- IC50 [18]: 0.025 µM

SMILES: C[S+]([O-])c1ccc(-c2nc(-c3ccc(F)cc3)c(-c3ccncc3)[nH]2)cc1 (configuration not stated)
- ΔTm [19]: 1.3 °C
- ΔTm [20]: 0.85 °C

SMILES: Cc1cn(-c2cc(NC(=O)c3ccc(C)c(Nc4nccc(-c5cccnc5)n4)c3)cc(C(F)(F)F)c2)cn1 [NILOTINIB]
- IC50 [21]: 1.8 µM

SMILES: Nc1nc(NCCc2ccccc2)c2nc[nH]c2n1
- IC50 [17]: 0.1 to 0.22 µM
